pIC50: −log10 of the molar value. *1 amine or outer side, *2 acyl side, *3 side chain or, on linkers, in order; H or OH if unused. Where a SMILES comes first, the peptide text is derived from it. Bridges are numbered along the chain shown (N, C = ends). [ ]: non-standard residue; d: D form. The star is where a group is joined. ξ: configuration not given here. Phe(3-CF3) = N[C@@H](Cc1cccc(C(F)(F)F)c1)C(=O)O; Phe(4-COOH) = N[C@@H](Cc1ccc(C(=O)O)cc1)C(=O)O; Bip = N[C@@H](Cc1ccc(-c2ccccc2)cc1)C(=O)O; NH(CH2)14COOH = O=C(O)CCCCCCCCCCCCCCN*; Phe(3-Me) = Cc1cccc(C[C@H](N)C(=O)O)c1; Val(3-OH) = CC(C)(O)[C@H](N)C(=O)O; 4Pal = N[C@@H](Cc1ccncc1)C(=O)O; X1 = O=C(CN1CCN([*:1])CC1)[*:2]; Cha = N[C@@H](CC1CCCCC1)C(=O)O; Cit = NC(=O)NCCC[C@H](N)C(=O)O; Ile(3ξ) = CCC(C)[C@H](N)C(=O)O; Thr(3ξ) = CC(O)[C@H](N)C(=O)O; 12Ado = NCCCCCCCCCCCC(=O)O; dOrn = NCCC[C@@H](N)C(=O)O; Carboxymethyl = O=C(O)C*; NMeA = CN[C@@H](C)C(=O)O; Orn = NCCC[C@H](N)C(=O)O; Aun = NCCCCCCCCCCC(=O)O; Dab = NCC[C@H](N)C(=O)O; Dap = NC[C@H](N)C(=O)O; AEEA = NCCOCCOCC(=O)O
target: T1, PD-1/PD-L1 interaction (PE-labeled human PD-L1-Ig binding to Jurkat cell line over-expressing human PD-1) (Homo sapiens, UniProt Q15116); assay: Jurkat-PD-1 Cell Binding High-Content Screening Assay (CBA); settings: Jurkat-hPD-1 cells, PE-labeled PD-L1-Ig 20 nM final; read-out: Jurkat HPD1 PDL1 IC50
T1 construct: expressed in transfected cells; host or cells: Jurkat
Outline: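 Cells 8×10^3/well, DMEM + 10% FCS; cpd 2 h, 37 °C; PE–PD-L1-Ig 20 nM final, 1 h; PFA fix + Hoechst 33342, 3× dPBS wash; high-content imager.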

T1 sequence (Q15116 25-288): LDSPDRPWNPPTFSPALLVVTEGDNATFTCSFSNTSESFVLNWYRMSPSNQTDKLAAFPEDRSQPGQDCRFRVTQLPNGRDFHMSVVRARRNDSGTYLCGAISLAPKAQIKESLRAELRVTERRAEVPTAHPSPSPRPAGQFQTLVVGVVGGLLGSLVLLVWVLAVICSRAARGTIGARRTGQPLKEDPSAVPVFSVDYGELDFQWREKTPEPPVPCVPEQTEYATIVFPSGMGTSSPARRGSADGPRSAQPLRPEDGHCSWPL

| pIC50 | SMILES |
| --- | --- |
| 7.19 | CCC(C)[C@@H]1NC(=O)[C@H](Cc2ccc(-c3ccccc3)cc2)NC(=O)[C@H](CC(C)C)NC(=O)[C@H](Cc2c[nH]c3ccccc23)NC(=O)[C@H](CC(=O)O)NC(=O)[C@H](Cc2ccc(O)cc2)NC(=O)[C@H](CC(N)=O)NC(=O)CSC[C@@H](C(=O)N[C@H](CC(N)=O)C(=O)NCCOCCOCC(=O)NCCCCCCCCCCC(=O)O)NC(=O)[C@H](CO)NC(=O)[C@H](C(C)C)NC(=O)[C@H](CC(C)C)NC(=O)[C@H](CCN)NC(=O)[C@@H](CC(C)C)NC(=O)[C@H](C)N(C)C1=O (stereo partly drawn) [Example 2063] ({CH2CO}-NYDWL[Bip][Ile(3ξ)][NMeA][dL][Dab]LVSC[dN][AEEA][Aun]-OH; thioether N-14) |
| 6.69 | CCC(C)[C@@H]1NC(=O)[C@H](CC(C)C)NC(=O)[C@H](CCN)NC(=O)[C@@H](CC(C)C)NC(=O)[C@H](C)N(C)C(=O)[C@H](C(C)CC)NC(=O)[C@H](Cc2ccc(-c3ccccc3)cc2)NC(=O)[C@H](C(C)CC)NC(=O)[C@H](Cc2c[nH]c3ccccc23)NC(=O)[C@H](CC(=O)O)NC(=O)[C@H](Cc2ccc(OCC(=O)O)cc2)NC(=O)[C@H](C(C)O)NC(=O)CSC[C@@H](C(=O)N[C@@H](CN)C(=O)NCCOCCOCC(=O)NCCCCCCCCCCC(=O)O)NC(=O)[C@H](CO)NC1=O (stereo partly drawn) [Example 2081] ({CH2CO}-[Thr(3ξ)]Y(Carboxymethyl)DW[Ile(3ξ)][Bip][Ile(3ξ)][NMeA][dL][Dab]L[Ile(3ξ)]SC[Dap][AEEA][Aun]-OH; thioether N-14) |
| 7.36 | Cc1cccc(C[C@@H]2NC(=O)[C@H](CC(=O)O)NC(=O)[C@H](Cc3ccc(OCC(=O)O)cc3)NC(=O)[C@H](Cc3ccc(OCC(=O)O)cc3)NC(=O)CSC[C@@H](C(=O)N[C@@H](CCN)C(=O)NCCCCCCCCCCC(=O)O)NC(=O)[C@H](CO)NC(=O)[C@H](C(C)C)NC(=O)[C@H](CC3CCCCC3)NC(=O)[C@H](CCN)NC(=O)[C@@H](CC(C)C)NC(=O)[C@H](C)N(C)C(=O)[C@H](Cc3ccc(OCC(=O)O)cc3)NC(=O)[C@H](Cc3ccc(-c4ccccc4)cc3)NC(=O)[C@H](C(C)C)NC2=O)c1 [Example 1265] ({CH2CO}-Y(Carboxymethyl)Y(Carboxymethyl)D[Phe(3-Me)]V[Bip]Y(Carboxymethyl)[NMeA][dL][Dab][Cha]VSC[Dab][Aun]-OH; thioether N-14) |
| 6.70 | Cc1cccc(C[C@@H]2NC(=O)[C@H](CC(=O)O)NC(=O)[C@H](Cc3cnc[nH]3)NC(=O)[C@H](Cc3ccc(OCC(=O)O)cc3)NC(=O)CSC[C@@H](C(=O)NCCCCCCCCCCC(=O)O)NC(=O)[C@H](CCCNC(N)=O)NC(=O)[C@H](C(C)C)NC(=O)[C@H](CC3CCCCC3)NC(=O)[C@H](CCN)NC(=O)[C@@H](CC(C)C)NC(=O)[C@H](C)N(C)C(=O)[C@H](Cc3ccc(O)cc3)NC(=O)[C@H](Cc3ccc(-c4ccccc4)cc3)NC(=O)[C@H](CCC(N)=O)NC2=O)c1 [Example 2257] ({CH2CO}-Y(Carboxymethyl)HD[Phe(3-Me)]Q[Bip]Y[NMeA][dL][Dab][Cha]V[Cit]C[Aun]-OH; thioether N-14) |
| 6.74 | CC(C)C[C@@H]1NC(=O)[C@H](Cc2c[nH]c3ccccc23)NC(=O)[C@H](CC(=O)O)NC(=O)[C@H](Cc2ccncc2)NC(=O)[C@H](Cc2ccc(OCC(=O)O)cc2)NC(=O)CSC[C@@H](C(=O)N2CCN(CC(=O)NCCCCCCCCCCC(=O)O)CC2)NC(=O)[C@H](CCCNC(N)=O)NC(=O)[C@H](C(C)C)NC(=O)[C@H](CC2CCCCC2)NC(=O)[C@H](CCN)NC(=O)[C@@H](CC(C)C)NC(=O)[C@H](C)N(C)C(=O)[C@H](C(C)C)NC(=O)[C@H](Cc2ccc(-c3ccccc3)cc2)NC1=O [Example 1220] ({CH2CO}-Y(Carboxymethyl)[4Pal]DWL[Bip]V[NMeA][dL][Dab][Cha]V[Cit]C[X1][Aun]-OH; thioether N-14) |
| 7.01 | CCC(C)[C@@H]1NC(=O)[C@H](Cc2ccc(-c3ccccc3)cc2)NC(=O)[C@H](CC(C)C)NC(=O)[C@H](Cc2c[nH]c3ccccc23)NC(=O)[C@H](CC(=O)O)NC(=O)[C@H](Cc2ccc(O)cc2)NC(=O)[C@H](Cc2ccncc2)NC(=O)CSC[C@@H](C(=O)N[C@H](CCCN)C(=O)NCCOCCOCC(=O)NCCCCCCCCCCC(=O)O)NC(=O)[C@H](CO)NC(=O)[C@H](C(C)C)NC(=O)[C@H](CC2CCCCC2)NC(=O)[C@H](CC(N)=O)NC(=O)[C@@H](CC(C)C)NC(=O)[C@H](C)N(C)C1=O (stereo partly drawn) [Example 2070] ({CH2CO}-[4Pal]YDWL[Bip][Ile(3ξ)][NMeA][dL]N[Cha]VSC[dOrn][AEEA][Aun]-OH; thioether N-14) |
| 6.72 | CC(C)C[C@H]1NC(=O)[C@H](C)N(C)C(=O)[C@H](Cc2ccc(OCC(=O)O)cc2)NC(=O)[C@H](Cc2ccc(-c3ccccc3)cc2)NC(=O)[C@H](Cc2ccc(OCC(=O)O)cc2)NC(=O)[C@H](Cc2c[nH]c3ccccc23)NC(=O)[C@H](CC(=O)O)NC(=O)[C@H](Cc2ccc(OCC(=O)O)cc2)NC(=O)[C@H]([C@@H](C)O)NC(=O)CSC[C@@H](C(=O)N[C@@H](CCN)C(=O)NCCOCCOCC(=O)NCCCCCCCCCCC(=O)O)NC(=O)[C@H](CCCN)NC(=O)[C@H](C(C)C)NC(=O)[C@H](CC2CCCCC2)NC(=O)[C@H](CC(N)=O)NC1=O [Example 1384] ({CH2CO}-TY(Carboxymethyl)DWY(Carboxymethyl)[Bip]Y(Carboxymethyl)[NMeA][dL]N[Cha]V[Orn]C[Dab][AEEA][Aun]-OH; thioether N-14) |
| 6.99 | Cc1cccc(C[C@@H]2NC(=O)[C@H](CC(=O)O)NC(=O)[C@H](Cc3ccc(OCC(=O)O)cc3)NC(=O)[C@H](Cc3ccc(OCC(=O)O)cc3)NC(=O)CSC[C@@H](C(=O)NCCOCCOCC(=O)NCCCCCCCCCCC(=O)O)NC(=O)[C@H](CCCNC(=N)N)NC(=O)[C@H](C(C)C)NC(=O)[C@H](CC3CCCCC3)NC(=O)[C@H](CCN)NC(=O)[C@@H](CC(C)C)NC(=O)[C@H](C)N(C)C(=O)[C@H](Cc3ccc(O)cc3)NC(=O)[C@H](Cc3ccc(-c4ccccc4)cc3)NC(=O)[C@H](CC(C)C)NC2=O)c1 [Example 2280] ({CH2CO}-Y(Carboxymethyl)Y(Carboxymethyl)D[Phe(3-Me)]L[Bip]Y[NMeA][dL][Dab][Cha]VRC[AEEA][Aun]-OH; thioether N-14) |
| 7.18 | CC(=O)NCCCC[C@@H]1NC(=O)[C@H](Cc2ccc(-c3ccccc3)cc2)NC(=O)[C@H](C(C)C)NC(=O)[C@H](Cc2c[nH]c3ccccc23)NC(=O)[C@H](CC(=O)O)NC(=O)[C@H](Cc2ccc(OCC(=O)O)cc2)NC(=O)[C@H](CN)NC(=O)CSC[C@@H](C(=O)N[C@@H](CCCN)C(=O)N[C@@H](CO)C(=O)NCCCCCCCCCCCC(=O)O)NC(=O)[C@H](C(C)O)NC(=O)[C@H](C(C)C)NC(=O)[C@H](CC2CCCCC2)NC(=O)[C@H](CCN)NC(=O)[C@@H](CC(C)C)NC(=O)[C@H](C)N(C)C1=O (stereo partly drawn) [Example 2407] ({CH2CO}-[Dap]Y(Carboxymethyl)DWV[Bip]K(Ac)[NMeA][dL][Dab][Cha]V[Thr(3ξ)]C[Orn]S[12Ado]-OH; thioether N-14) |
| 7.59 | Cc1cccc(C[C@@H]2NC(=O)[C@H](CC(=O)O)NC(=O)[C@H](Cc3ccc(C(=O)O)cc3)NC(=O)[C@H](Cc3ccc(OCC(=O)O)cc3)NC(=O)CSC[C@@H](C(=O)N[C@@H](CCN)C(=O)NCCCCCCCCCCC(=O)O)NC(=O)[C@H](C(C)O)NC(=O)[C@H](C(C)C)NC(=O)[C@H](CC3CCCCC3)NC(=O)[C@H](CCN)NC(=O)[C@@H](CC(C)C)NC(=O)[C@H](C)N(C)C(=O)[C@H](C(C)C)NC(=O)[C@H](Cc3ccc(-c4ccccc4)cc3)NC(=O)[C@H](CC(C)C)NC2=O)c1 (stereo partly drawn) [Example 2323] ({CH2CO}-Y(Carboxymethyl)[Phe(4-COOH)]D[Phe(3-Me)]L[Bip]V[NMeA][dL][Dab][Cha]V[Thr(3ξ)]C[Dab][Aun]-OH; thioether N-14) |
| 6.76 | Cc1cccc(C[C@@H]2NC(=O)[C@H](CC(=O)O)NC(=O)[C@H](Cc3ccc(OCC(=O)O)cc3)NC(=O)[C@H]([C@@H](C)O)NC(=O)CSC[C@@H](C(=O)N[C@@H](CC(N)=O)C(=O)NCCOCCOCC(=O)NCCCCCCCCCCC(=O)O)NC(=O)[C@H](CCC(=O)O)NC(=O)[C@H](C(C)(C)O)NC(=O)[C@H](CC3CCCCC3)NC(=O)[C@H](CCN)NC(=O)[C@@H](CC(C)C)NC(=O)[C@H](C)N(C)C(=O)[C@H](Cc3ccc(OCC(=O)O)cc3)NC(=O)[C@H](Cc3ccc(-c4ccccc4)cc3)NC(=O)[C@H](Cc3ccc(OCC(=O)O)cc3)NC2=O)c1 [Example 1415] ({CH2CO}-TY(Carboxymethyl)D[Phe(3-Me)]Y(Carboxymethyl)[Bip]Y(Carboxymethyl)[NMeA][dL][Dab][Cha][Val(3-OH)]ECN[AEEA][Aun]-OH; thioether N-14) |
| 7.55 | CC(C)C[C@@H]1NC(=O)[C@H](Cc2c[nH]c3ccccc23)NC(=O)[C@H](CC(=O)O)NC(=O)[C@H](Cc2ccncc2)NC(=O)[C@H](Cc2ccc(OCC(=O)O)cc2)NC(=O)CSC[C@@H](C(=O)N[C@@H](CN)C(=O)NCCCCCCCCCCC(=O)O)NC(=O)[C@H](CO)NC(=O)[C@H](C(C)C)NC(=O)[C@H](CC2CCCCC2)NC(=O)[C@H](CCN)NC(=O)[C@@H](CC(C)C)NC(=O)[C@H](C)N(C)C(=O)[C@H](C(C)C)NC(=O)[C@H](Cc2ccc(-c3ccccc3)cc2)NC1=O [Example 1082] ({CH2CO}-Y(Carboxymethyl)[4Pal]DWL[Bip]V[NMeA][dL][Dab][Cha]VSC[Dap][Aun]-OH; thioether N-14) |

same assay, conditions: PE-labeled PD-L1-Ig 20 nM final, Jurkat-hPD-1 cells; read-out: Jurkat HPD1 PDL1 IC50

| pIC50 | SMILES |
| --- | --- |
| 6.72 | CC(C)C[C@H]1NC(=O)[C@H](C)N(C)C(=O)[C@H](CCCNC(N)=O)NC(=O)[C@H](Cc2ccc(-c3ccccc3)cc2)NC(=O)[C@H](Cc2ccc(OCC(=O)O)cc2)NC(=O)[C@H](Cc2cccc(C(F)(F)F)c2)NC(=O)[C@H](CC(=O)O)NC(=O)[C@H](Cc2ccc(OCC(=O)O)cc2)NC(=O)[C@H](Cc2ccc(OCC(=O)O)cc2)NC(=O)CSC[C@@H](C(=O)N[C@@H](CCN)C(=O)NCCCCCCCCCCCCCCC(=O)O)NC(=O)[C@H](CCC(=O)O)NC(=O)[C@H](C(C)(C)O)NC(=O)[C@H](CC2CCCCC2)NC(=O)[C@H](CCN)NC1=O [Example 2625] ({CH2CO}-Y(Carboxymethyl)Y(Carboxymethyl)D[Phe(3-CF3)]Y(Carboxymethyl)[Bip][Cit][NMeA][dL][Dab][Cha][Val(3-OH)]EC[Dab]-{NH(CH2)14COOH}; thioether N-14) |
